Data published in US5646249A, “Isolation and characterization of a novel chaperone protein” (The United States of America as represented by the …, priority 1994, dated 1997).

Target: T1, human STCH, GST-STCH fusion protein representing STCH codons 4-471 (SEQ ID NO: 2) (Homo sapiens, UniProt P48723)
T1 construct: near full-length GST-STCH fusion protein, representing STCH codons 4-471; made in house; host or cells: E. coli HB101
T1 sequence (P48723 4-471): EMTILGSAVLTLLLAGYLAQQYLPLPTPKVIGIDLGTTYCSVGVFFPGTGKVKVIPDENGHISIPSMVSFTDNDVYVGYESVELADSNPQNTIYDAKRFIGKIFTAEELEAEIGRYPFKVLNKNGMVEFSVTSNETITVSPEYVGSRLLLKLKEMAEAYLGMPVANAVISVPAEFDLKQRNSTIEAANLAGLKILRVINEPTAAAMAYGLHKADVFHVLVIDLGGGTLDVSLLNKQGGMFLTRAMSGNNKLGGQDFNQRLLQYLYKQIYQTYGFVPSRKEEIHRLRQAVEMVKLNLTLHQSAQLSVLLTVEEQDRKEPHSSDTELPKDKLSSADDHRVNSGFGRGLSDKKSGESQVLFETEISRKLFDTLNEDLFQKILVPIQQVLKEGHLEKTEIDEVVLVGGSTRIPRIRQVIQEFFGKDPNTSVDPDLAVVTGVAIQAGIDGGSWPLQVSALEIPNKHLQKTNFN
Assay: ATPase assay of purified GST-STCH fusion protein
Assay type: biochemical
Conditions: read-out: Km for the unstimulated STCH ATPase (ATP); unstimulated (no peptide), 37° C., recombinant GST-STCH codons 4-471
Procedure: Inspection of the primary amino acid sequence of the STCH product predicts a functional ATPase molecule. ATPase activity was tested using a GST -Stch plasmid that encoded a functional fusion protein including STCH codons 4-471 (See Table II and SEQ ID NO: 1). A preferred strategy for preparing this fusion protein is provided in Example III and a preferred strategy for performing ATPase assays is provided in Example VI. To exclude contaminating sources of ATPase, the GST leader peptide and the GST-STCH affinity-purified fusion proteins were eluted off glutathione--Sepharose beads, then purified by anion-exchange chromatography (mono Q) and the protein composition of the column fractions was analyzed by SDS--PAGE. The peak ATPase activity of the GST --STCH product coincided with fractions 11 and 12. While no measurable ATPase activity was detected in fractions 11 and 12 from the GST leader sequence. These fractions were pooled from the GST--STCH sample and ATPase activity was measured in the presence or absence of two different peptides. […] The Km for the unstimulated STCH ATPase was 2-3 μM ATP and the measured ATPase activity was linear with respect to time and concentration over the range tested. […]

Nc1ncnc2c1ncn2[C@@H]1O[C@H](COP(=O)(O)OP(=O)(O)OP(=O)(O)O)[C@@H](O)[C@H]1O [ATP]
Km: 2 to 3 µM
